In ChEMBL document CHEMBL4825770, “KRAS Mutant Combination Therapy for the Effective Treatment of Cancer” (ACS Med Chem Lett, 2021):
pIC50: −log10 of the molar value.

Columns and labels:
Format in all cases: functional
NCI-H1792 [1] = test: Cytotoxicity against human NCI-H1792 cells harboring KRAS G12C mutant assessed as reduction in cell viability measured after 72 hrs by CellTiter-Glo luciferase-based ATP detection assay; conditions: NCI-H1792, 72 h
NCI-H1373 [2] = test: Cytotoxicity against human NCI-H1373 cells harboring KRAS G12C mutant assessed as reduction in cell viability measured after 72 hrs by CellTiter-Glo luciferase-based ATP detection assay; conditions: NCI-H1373, 72 h
NCI-H358 [3] = test: Cytotoxicity against human NCI-H358 cells harboring KRAS G12C mutant assessed as reduction in cell viability measured after 72 hrs by CellTiter-Glo luciferase-based ATP detection assay; conditions: NCI-H358, 72 h
NCI-H23 [4] = test: Cytotoxicity against human NCI-H23 cells harboring KRAS G12C mutant assessed as reduction in cell viability measured after 72 hrs by CellTiter-Glo luciferase-based ATP detection assay; conditions: NCI-H23, 72 h
NCI-H2122 [5] = test: Cytotoxicity against human NCI-H2122 cells harboring KRAS G12C mutant assessed as reduction in cell viability measured after 72 hrs by CellTiter-Glo luciferase-based ATP detection assay; conditions: NCI-H2122, 72 h
NCI-H1373 [6] = test: Cytotoxicity against human NCI-H1373 cells harboring KRASG12C mutant assessed as reduction in cell viability measured after 72 hrs in presence of compound 1 by CellTiter-Glo luciferase-based ATP detection assay; conditions: NCI-H1373, 72 h
NCI-H2122 [7] = test: Cytotoxicity against human NCI-H2122 cells harboring KRASG12C mutant assessed as reduction in cell viability measured after 72 hrs in presence of compound 1 by CellTiter-Glo luciferase-based ATP detection assay; conditions: NCI-H2122, 72 h
NCI-H23 [8] = test: Cytotoxicity against human NCI-H23 cells harboring KRASG12C mutant assessed as reduction in cell viability measured after 72 hrs in presence of compound 1 by CellTiter-Glo luciferase-based ATP detection assay; conditions: NCI-H23, 72 h
NCI-H358 [9] = test: Cytotoxicity against human NCI-H358 cells harboring KRASG12C mutant assessed as reduction in cell viability measured after 72 hrs in presence of compound 1 by CellTiter-Glo luciferase-based ATP detection assay; conditions: NCI-H358, 72 h
NCI-H1792 [10] = test: Cytotoxicity against human NCI-H1792 cells harboring KRASG12C mutant assessed as reduction in cell viability measured after 72 hrs in presence of compound 1 by CellTiter-Glo luciferase-based ATP detection assay; conditions: NCI-H1792, 72 h

Compound | pIC50 (NCI-H1792 [1]) | pIC50 (NCI-H1373 [2]) | pIC50 (NCI-H358 [3]) | pIC50 (NCI-H23 [4]) | pIC50 (NCI-H2122 [5]) | pIC50 (NCI-H1373 [6]) | pIC50 (NCI-H2122 [7]) | pIC50 (NCI-H23 [8]) | pIC50 (NCI-H358 [9]) | pIC50 (NCI-H1792 [10])
C[C@H]1CNC(=O)c2cnn3ccc(nc23)N[C@H](C)c2cc(F)ccc2O1 [REPOTRECTINIB] | 5.72 | 5.30 | 5.60 | 5.39 | 5.71 | – | – | – | – | –
C=CC(=O)N1CCN(c2nc(=O)n(-c3c(C)ccnc3C(C)C)c3nc(-c4c(O)cccc4F)c(F)cc23)[C@@H](C)C1 [SOTORASIB] | < 5.00 | < 5.00 | 6.67 | < 5.00 | – | 6.45 | 7.04 | 5.82 | 8.52 | 5.52
